Where no end group is shown, it is not given here.
Tests used:
[1] = type: in vitro ADME, human
Experimental: The metabolic stability was checked in human serum at 37 °C in presence and in absence of 1,10 phenanthroline monohydrate, a well-known metalloprotease inhibitor (Wijayanti et al. [2006]) at appropriate periods of time (0, 15, 30, 60 min). In two different tubes containing 200 μL of human serum plasma previously incubated at 37 °C was added 40 μL of ^67Ga-P04087 labelling solution. 4 μL of 1 mg/mL of 1,10 phenanthroline monohydrate in ethanol was added only in one of the two tubes. At 0, 15, 30 and 60 min, 20 μL aliquots were collected and proteins were precipitated with 200 μL of methanol. Samples were then filtered with 0.2 μm Whatman filter (13 mm) and the methanol was then evaporated with a stream of nitrogen. The resulting dry residue was dissolved in 200 μL water and then analyzed by C18-radio-HPLC using the equipment mentioned above.

[2] = system: phosphatidylserine in valve vegetations; experiment: In vivo binding to PS in rat model of infective endocarditis (SPECT/CT, autoradiography); settings: intravenous injection, intense signal in the bladder
[3] = compared with Ga-P04087; no reference given for the value; cited from earlier work
Experimental: Affinities of cold-labelled peptide (Ga-P04087) and the peptide of reference (R824) for phosphatidylserine were evaluated by enzyme-linked immunosorbent assay. A competitive binding assay procedure was performed: A 96-well plate (MICROLON plaque 200, med. Binding, F-bottom, GREINER) was coated with 200 μL/well of phosphatidylserine (PS) (Avanti Polar Lipids) (dissolved in ethanol (SIGMA ALDRICH) for a final concentration of 100 μg/mL).

[4] = system: vegetations; settings: vegetations of experimental endocarditis; ref Rouzet et al. [2008]; cited from earlier work
From the text: Otherwise, the presence of ^67Ga-P04087 uptake on autoradiography in contrast to the rapid degradation observed in vitro without the metalloprotease inhibitor, point out the discrepancies that could occur between in vitro and in vivo degradation even when low tracer amounts are used in vitro in order to avoid saturation of enzymes (García-Garayoa et al. [2001]). These positive autoradiography results extend the findings of histology experimentations on the binding of the agent to PS. However, comparatively to radiolabelled Annexin A5, the contrast was not sufficient to provide a detectable sig ...

[5] = Peptide stability in Hank's medium with 10% foetal calf serum; type: in vitro ADME; settings: 37 °C; for Stability result: Hanks + 10% FCS, 2 h incubation, in darkness, triplicate, sampled at 0, 1 h, 2 h, TCA precipitation, LC/ES/MS; for Stability in Hanks media supplied or not with foetal calf serum: Hanks media with or without FCS, two hours
Experimental: A 100 μL solutions of R824 (PGDLSR), R825 (DAHSFS) and R826 (LIKKPF) in Hank’s medium and 10% FCS (foetal calf serum) were prepared and incubated (in triplicate) for 2 h at 37 °C and in complete darkness. At 0, 1 h and 2 h, 100 μL were sampled from each tube; 200 μL of 0.6 M trichloroacetic acid were added. The mixtures were then centrifuged at 20,000 g for 10 min at 4 °C. One microliter of each supernatant was then analyzed by LC/ES/MS.

Compound | Stability result [5] | Stability in Hanks media supplied or not with foetal calf serum [5] | further results
CC(C)C[C@H](NC(=O)[C@H](CC(=O)O)NC(=O)CNC(=O)[C@@H]1CCCN1C(=O)CCNC(=O)CCC(C(=O)O)N1CCN(CC(=O)O)CCN(CC(=O)O)CC1)C(=O)N[C@@H](CO)C(=O)N[C@@H](CCCNC(=N)N)C(=O)O (some centres unmarked) [Peptide 67Ga-P04087, metal not drawn] |  |  | Radiochemical purity in human serum with 1,10 phenanthroline monohydrate [1]: 100%; Renal elimination on SPECT/CT [2]: rapid renal elimination
99mTc-AnnexinV: technetium 99m-labelled Annexin V, protein imaging agent targeting PS |  |  | affinity to PS [3]: 6*10^−9 M; uptake ratio for autoradiography [4]: 2; uptake ratio for in vivo acquisitions [4]: 1.3
LIKKPF [Peptide R826] | Total degradation 1 h after the start of incubation | quickly degraded | 
DAHSFS [Peptide R825] | Stable | stable | 
PGDLSR [Peptide R824] | Stable | stable | 
